# Assay results published in US11480578B2, “Method for identifying a biomarker indicative of a reduced drug response using a thermal shift assay” (Pelago Bioscience AB, priority 2014, dated 2022).
# System: Methionine aminopeptidase-2
# Test: cell resolved thermal shift assay (FACS sorting, heating, Western blot)
# Type: cell-based, mouse
# Settings: TNP-470 final concentration 2 μM for one hour; mixed cells FACS sorted; heated 44 to 52° C.; MetAP-2 Western blot; FIG. 3
# Procedure: Human cancer cell line K562 and mouse fibrosarcoma cell line T241 with endogenous expression of GFP, were cultured to short-term passages (3-15) in an incubator chamber. The T241 cells were treated with the MetAP-2 inhibitor TNP-470 (final concentration 2 μM) for one hour in the incubator chamber. Following incubation, the cells were washed by repeated centrifugation to pellet cells and re-dissolve in PBS. After this step, the cells were pooled into a PBS buffer. This mix of cells was then subjected to FACS sorting using a MoFlo XDP from Beckman Coulter. Cells were either sorted by their GFP fluorescence (T241) or by the lack of fluorescence (K562). The sorted cells were then aliquoted in 8 tube PCR strips and subjected to heating to temperatures ranging from 44 to 52° C. with two degree increments. After heating, the cells were snap frozen in N2 (I) and freeze thawed. The resulting cell debris together with precipitated protein was pelleted by centrifugation at 20000*g for 20 minutes. The supernatants, containing various amount of the target protein (MetAP-2) were subjected to standard SDS-Page and Western blot analysis using a specific primary MetAP-2 antibody (Santa Cruz Biotechnology SC-365637) at 1:400 dilution in non-fat dietary milk.
compound,measurement,value
CO[C@@H]1[C@H](OC(=O)NC(=O)CCl)CC[C@]2(CO2)[C@H]1[C@@]1(C)O[C@@H]1CC=C(C)C [TNP-470],stabilisation of the target protein Methionine aminopeptidase-2 (dark band shows presence of heat stabilised protein),stabilisation
